Experimental data: paper PMC9919699, “A Comprehensive Approach to Derivatization: Elemental Composition, Biochemical, and In Silico Studies of Metformin Derivatives Containing Copper and Zinc Complexes” (Molecules, 2023)
Like-named read-outs stand apart in the source and are kept apart here.

How the values were obtained:
α-amylase = α-amylase enzyme inhibition assay (starch, dinitro-salicylic acid, 540 nm); type: biochemical
Protocol: All derivatives of metformin were analyzed for serum amylase inhibitory activity using the Yukihoko Hara method. Three test tubes were labeled as blank (B), test (T), and control (C). Then, 2.5 mL of phosphate buffer (pH 6.8) was added to each test tube. Next, 1 mL of starch and 1 mL of 2 N sodium chloride solution were added to each test tube. The test tubes were incubated at 37 °C for 10 min. After incubation, 0.5 mL of derivatives was added to test tube T, followed by 0.2 mL of enzyme (α-amylase). All contents were mixed well, and then the tube was incubated at 37 °C for 10 min. In the control test tube, normal saline (2 N), starch solution (1 mL), and enzyme solution (0.2 mL) were added before incubating at 37 °C for 10 min. In the blank test tube, only 5.7 mL of distilled water was added. Dinitro-salicylic acid (0.2 mL) was added to all test tubes. The contents were mixed well, and the test tubes were kept in a boiling water bath for 15 min. The intensity of reddish orange was read at 540 nm. The percentage inhibitory action of serum amylase was calculated using the following formula:Percentage inhibition = OD of control − OD of test tube/OD of control × 100.

α-glucosidase = α-glucosidase enzyme inhibition assay (starch substrate, anthrone reagent, 640 nm); type: biochemical; details: for IC50: read-out: IC50
Protocol: The α-glucosidase-inhibitory activity of all derivatives of metformin was tested using the method previously described. Three test tubes were marked as test (T), blank (B), and control (C). Then, 200 µL of substrate (starch) and enzyme (α-glucosidase) was added to test tubes T and C. The contents were mixed well, and then the test tubes were incubated at 37 °C for 30 min. After incubation, trichloroacetic acid was added to all test tubes, which were then centrifuged for 10 min. Free glucose was available after the reaction with anthrone reagent (1.5 mL). The contents in the test tubes were boiled for 15 min, and the absorbance was read at a wavelength at 640 nm. The percentage inhibition was calculated using the following formula:Percentage inhibition = OD of control − OD of test tube/OD of control × 100.

[1] = 250 µg/mL, Table 9 (MZn series)
[2] = 500 µg/mL, Table 9 (MZn series)
[3] = 1000 µg/mL, Table 9 (MZn series)
[4] = Table 9 (MZn series), read-out: IC50
[5] = 250 µg/mL, Table 6 (MZn series)
[6] = 500 µg/mL, Table 6 (MZn series)
[7] = 1000 µg/mL, Table 6 (MZn series)
[8] = 250 µg/mL, Table 8 (MCu series)
[9] = 500 µg/mL, Table 8 (MCu series)
[10] = 1000 µg/mL, Table 8 (MCu series)
[11] = Table 8 (MCu series), read-out: IC50
[12] = 250 µg/mL, Table 5 (MCu series)
[13] = 500 µg/mL, Table 5 (MCu series)
[14] = 1000 µg/mL, Table 5 (MCu series)
[15] = 250 µg/mL, Table 7 (Met series)
[16] = 500 µg/mL, Table 7 (Met series)
[17] = 1000 µg/mL, Table 7 (Met series)
[18] = Table 7 (Met series), read-out: IC50
[19] = 250 µg/mL, Table 4 (Met series)
[20] = 500 µg/mL, Table 4 (Met series)
[21] = 1000 µg/mL, Table 4 (Met series)

Row | Compound | % Inhibition (α-amylase; [1]) [%] | % Inhibition (α-amylase; [2]) [%] | % Inhibition (α-amylase; [3]) [%] | IC50 (α-amylase; [4]) [µM] | % Inhibition (α-glucosidase; [5]) [%] | % Inhibition (α-glucosidase; [6]) [%] | % Inhibition (α-glucosidase; [7]) [%] | % Inhibition (α-amylase; [8]) [%] | % Inhibition (α-amylase; [9]) [%] | % Inhibition (α-amylase; [10]) [%] | % Inhibition (α-glucosidase; [12]) [%] | % Inhibition (α-glucosidase; [13]) [%] | % Inhibition (α-glucosidase; [14]) [%] | % Inhibition (α-amylase; [15]) [%] | % Inhibition (α-amylase; [16]) [%] | % Inhibition (α-amylase; [17]) [%] | % Inhibition (α-glucosidase; [19]) [%] | % Inhibition (α-glucosidase; [20]) [%] | % Inhibition (α-glucosidase; [21]) [%] | further results
1 | CN(C)C(=N)NC(=N)N=CC=Cc1ccccc1.CN(C)C(=N)NC(=N)N=CC=Cc1ccccc1.O.O.O.O.O.O=S(=O)([O-])[O-].[Zn+2] [MZn3] | 13.59 ± 0.34 | 41.55 ± 0.34 | 78.57 ± 0.28 | 780 | 50.22 ± 0.15 | 58.18 ± 0.21 | 68.63 ± 0.20 |  |  |  |  |  |  |  |  |  |  |  |  | IC50 (α-glucosidase; Table 6 (MZn series)): 540 µM
2 | CC(=NC(=N)NC(=N)N(C)C)c1ccccc1.CC(=NC(=N)NC(=N)N(C)C)c1ccccc1.O.O.O.O.O.O=S(=O)([O-])[O-].[Zn+2] [MZn6] | 18.76 ± 0.17 | 33.29 ± 0.46 | 51.47 ± 0.28 | 540 | 36.67 ± 0.26 | 41.26 ± 0.32 | 44.51 ± 0.19 |  |  |  |  |  |  |  |  |  |  |  |  | 
3 | CN(C)C(=N)NC(=N)N=Cc1ccccc1O.CN(C)C(=N)NC(=N)N=Cc1ccccc1O.O.O.O.O.O.O=S(=O)([O-])[O-].[Cu+2] [MCu2] |  |  |  |  |  |  |  | 29.52 ± 0.28 | 44.56 ± 0.34 | 77.56 ± 0.34 | 31.13 ± 0.04 | 48.50 ± 0.22 | 77.32 ± 0.17 |  |  |  |  |  |  | IC50 (α-amylase; [11]): 790 µM
4 | CN(C)C(=N)NC(=N)N=Cc1ccccc1.CN(C)C(=N)NC(=N)N=Cc1ccccc1.O.O.O.O.O.O=S(=O)([O-])[O-].[Zn+2] [MZn1] | 31.46 ± 0.34 | 55.54 ± 0.34 | 82.60 ± 0.40 | 750 | 54.74 ± 0.15 | 62.48 ± 0.19 | 77.57 ± 0.20 |  |  |  |  |  |  |  |  |  |  |  |  | IC50 (α-glucosidase; Table 6 (MZn series)): 700 µM
5 | CN(C)C(=N)NC(=N)N=C(c1ccccc1)c1ccccc1.CN(C)C(=N)NC(=N)N=C(c1ccccc1)c1ccccc1.O.O.O.O.O.O=S(=O)([O-])[O-].[Zn+2] [MZn7] | 24.32 ± 0.51 | 44.52 ± 0.34 | 73.43 ± 0.28 | 250 | 33.67 ± 67 | 37.61 ± 0.20 | 42.54 ± 0.26 |  |  |  |  |  |  |  |  |  |  |  |  | 
6 | C=NC(=N)NC(=N)N(C)C [Met4, N,N-dimethyl-N′-methylidenetriimidodicarbonic diamide] |  |  |  |  |  |  |  |  |  |  |  |  |  | 15.48 ± 0.15 | 37.65 ± 0.19 | 55.48 ± 0.23 | 17.49 ± 0.29 | 25.77 ± 0.35 | 43.72 ± 0.26 | IC50 (α-amylase; [18]): 700 µM
7 | COc1cc(C=NC(=N)NC(=N)N(C)C)ccc1O.COc1cc(C=NC(=N)NC(=N)N(C)C)ccc1O.O.O.O.O.O.O=S(=O)([O-])[O-].[Cu+2] [MCu8] |  |  |  |  |  |  |  | 42.68 ± 0.46 | 61.35 ± 0.51 | 84.35 ± 0.51 | 41.50 ± 0.26 | 67.35 ± 35 | 83.14 ± 0.09 |  |  |  |  |  |  | IC50 (α-amylase): 712.6 µg/mL; IC50 (α-amylase; [11]): 900 µM; IC50 (α-glucosidase; Table 5 (MCu series)): 720 µM
8 | CN(C)C(=N)NC(=N)N=C(c1ccccc1)C(O)c1ccccc1 (centres unmarked) [Met9, N′-[(1Z)-2-hydroxy-1,2-diphenylethylidene]-N,N-dimethyltriimidodicarbonic diamide] |  |  |  |  |  |  |  |  |  |  |  |  |  | 5.41 ± 0.20 | 8.61 ± 0.25 | 19.71 ± 0.46 | 10.79 ± 0.10 | 29.86 ± 0.10 | 39.09 ± 0.05 | IC50 (α-amylase; [18]): 790 µM
9 | CN(C)C(=N)NC(=N)N=C(c1ccccc1)c1ccccc1.CN(C)C(=N)NC(=N)N=C(c1ccccc1)c1ccccc1.O.O.O.O.O.O=S(=O)([O-])[O-].[Cu+2] [MCu7] |  |  |  |  |  |  |  | 15.37 ± 0.23 | 38.31 ± 0.46 | 55.43 ± 0.23 | 29.47 ± 0.18 | 37.37 ± 0.30 | 48.29 ± 0.28 |  |  |  |  |  |  | IC50 (α-amylase; [11]): 200 µM; IC50 (α-glucosidase; Table 5 (MCu series)): 320 µM
10 | CC(C)=NC(=N)NC(=N)N(C)C [Met5, N,N-dimethyl-N′-(propan-2-ylidene)triimidodicarbonic diamide] |  |  |  |  |  |  |  |  |  |  |  |  |  | 15.61 ± 0.20 | 39.48 ± 0.32 | 63.47 ± 0.23 | 22.85 ± 0.15 | 39.43 ± 0.19 | 53.44 ± 0.15 | IC50 (α-amylase; [18]): 740 µM; IC50 (α-glucosidase; Table 4 (Met series)): 2000 µM
11 | CN(C)C(=N)N=C(N)N [Met, N,N-dimethyltriimidodicarbonic diamide, reference compound] |  |  |  |  |  |  |  |  |  |  |  |  |  | 55.27 ± 0.20 | 63.18 ± 0.20 | 85.25 ± 0.32 | 41.73 ± 0.10 | 52.83 ± 0.11 | 81.30 ± 0.10 | IC50 (α-amylase; [18]): 9400 µM; IC50 (α-glucosidase; Table 4 (Met series)): 4800 µM
12 | CC(C)=NC(=N)NC(=N)N(C)C.CC(C)=NC(=N)NC(=N)N(C)C.O.O.O.O.O.O=S(=O)([O-])[O-].[Zn+2] [MZn5] | 15.44 ± 0.28 | 37.60 ± 0.28 | 58.35 ± 0.17 | 560 | 32.86 ± 0.15 | 38.87 ± 0.10 | 49.46 ± 0.20 |  |  |  |  |  |  |  |  |  |  |  |  | 
13 | C[C@H]1O[C@H](O[C@H]2[C@H](O)[C@@H](O)[C@@H](O[C@H]3[C@H](O)[C@@H](O)C(O)O[C@@H]3CO)O[C@@H]2CO)[C@H](O)[C@@H](O)[C@@H]1N[C@H]1C=C(CO)[C@@H](O)[C@H](O)[C@H]1O (some centres unmarked) [Acarbose, reference compound] | 49.59 ± 0.34 | 72.73 ± 0.46 | 91.71 ± 0.46 |  | 54.12 ± 0.09 | 74.52 ± 0.19 | 98.60 ± 0.10 | 42.73 ± 0.46 | 67.52 ± 0.34 | 92.73 ± 0.46 | 42.65 ± 0.09 | 62.41 ± 0.28 | 91.83 ± 0.18 | 49.65 ± 0.15 | 72.33 ± 0.20 | 91.58 ± 0.36 | 41.84 ± 0.08 | 66.79 ± 0.09 | 89.01 ± 0.01 | 
14 | CN(C)C(=N)NC(=N)N=C(c1ccccc1)C(O)c1ccccc1.CN(C)C(=N)NC(=N)N=C(c1ccccc1)C(O)c1ccccc1.O.O.O.O.O.O=S(=O)([O-])[O-].[Zn+2] (centres unmarked) [MZn9] | 15.64 ± 0.28 | 38.64 ± 0.40 | 59.70 ± 0.46 | 700 | 28.64 ± 0.25 | 37.51 ± 0.25 | 45.37 ± 0.20 |  |  |  |  |  |  |  |  |  |  |  |  | 
15 | CN(C)C(=N)NC(=N)N=C(c1ccccc1)c1ccccc1 [Met7, N′-(diphenylmethylidene)-N,N-dimethyltriimidodicarbonic diamide] |  |  |  |  |  |  |  |  |  |  |  |  |  | 24.25 ± 0.20 | 34.45 ± 0.26 | 48.33 ± 0.51 | 27.42 ± 0.32 | 41.84 ± 0.15 | 55.77 ± 0.01 | IC50 (α-amylase; [18]): 1400 µM; IC50 (α-glucosidase; Table 4 (Met series)): 900 µM
16 | CC(=NC(=N)NC(=N)N(C)C)c1ccccc1.CC(=NC(=N)NC(=N)N(C)C)c1ccccc1.O.O.O.O.O.O=S(=O)([O-])[O-].[Cu+2] [MCu6] |  |  |  |  |  |  |  | 23.34 ± 0.51 | 45.45 ± 0.28 | 64.65 ± 0.28 | 10.74 ± 0.11 | 24.44 ± 0.15 | 53.44 ± 0.33 |  |  |  |  |  |  | IC50 (α-amylase; [11]): 320 µM; IC50 (α-glucosidase; Table 5 (MCu series)): 290 µM
17 | CC(C)=NC(=N)NC(=N)N(C)C.CC(C)=NC(=N)NC(=N)N(C)C.O.O.O.O.O.O=S(=O)([O-])[O-].[Cu+2] [MCu5] |  |  |  |  |  |  |  | 12.46 ± 0.23 | 38.44 ± 0.40 | 61.38 ± 0.23 | 21.73 ± 0.12 | 38.21 ± 0.18 | 56.45 ± 0.20 |  |  |  |  |  |  | IC50 (α-amylase; [11]): 320 µM; IC50 (α-glucosidase; Table 5 (MCu series)): 460 µM
